Results: US20250213547A1, “METHODS OF TREATING NEUROLOGICAL DISEASES” (priority 2022, published 2025)
Where “and” joins values, the source holds several entries; their conditions need not be identical. Equal values may be shown once. Read-outs that look alike come from different tables or passages of the source.

Experiments:
Type in all cases: in vivo, human
[1] = tested on: seizure frequency in developmental and/or epileptic encephalopathy patients; experiment: Adult DEE patients: antiseizure efficacy (seizure frequency)
Text: The third clinical trial was a randomized, double-blind, placebo controlled study. […] After the completion of Part A, 16 patients continued in Part B with open-label treatment for 60 additional days. Patients were included in the trial if they were 18-65 years of age with an established diagnosis of DEE, such as Lennox-Gastaut syndrome, Dravet syndrome, or tuberous sclerosis complex. For enrollment, patients were required to have had at least two bilateral motor seizures per month in the three months prior. In addition, during the 4-week baseline period prior to dosing, patients were required to have incurred at least one bilateral motor seizure. Exclusion criteria included abnormal ECG, degenerative eye disease, or admission to emergency care for treatment of status epilepticus that required mechanical ventilation.
Only patients having at least one bilateral seizure during the baseline study were eligible to continue. […] The range of seizure types included tonic-clonic, drop seizures, tonic, atonic, bilateral clonic, myoclonic-atonic, myotonic-tonic-clonic, and focal seizures. Aside from seizure history, subjects were also enrolled based on an establish diagnosis of DEE, such as Lennox-Gastaut syndrome (LGS) and Dravet syndrome (DS), tuberous sclerosis complex, and a history of special education or an overall intellectual quotient of <70. […] Subjects could continue taking 1-4 anti-seizure medicines (ASM), with the exception of stiripentol, during the study.
FIG. 9A depicts the study paradigm and FIG. 9B depicts the patient disposition. […] Part B consisted of an open-label 85-day extension study to ensure long-term safety and tolerability. The first 20 days of part A consisted of a tolerability titration phase, and thereafter a maintenance phase lasting from days 21-30.

plasma 24HC = experiment: Healthy Japanese subjects, Part 2: plasma 24HC pharmacodynamics
Method: TAK-935 or placebo was administered to the 9 subjects at the dose of 100 mg BID from Day 1 to Day 7, then 200 mg BID from Day 8 to Day 14, and finally 300 mg BID from Day 15 to Day 21, and safety, PK and PD were investigated. The planned dose levels of TAK-935 to be evaluated are outlined in Table 40a.
Blood samples for PD analysis of plasma 24HC level were collected into blood collection tubes (vacutainer) containing the anticoagulant K2EDTA.
The PD assessments described below were performed at the time points stipulated in the schedule of procedures. The additional PD endpoints included the following PD parameters for plasma 24HC: […]

[2] = Healthy Japanese subjects, Part 1 (single dose 200, 600, 1200 mg tablets): PK of TAK-935 and M-I; details: plasma; for Vd/F: read-out: Vz/F; for half-life: read-out: t1/2z (terminal disposition phase half-life) (converted); for AUC: read-out: Mean AUC24
Method: This study consisted of 2 parts, and was a randomized, double-blind, placebo-controlled study to assess safety, tolerability, and PK and PD of TAK-935 when administered orally in healthy Japanese subjects.
On Day 1 of each dose level, a single dose of TAK-935 or placebo was administered, and safety, PK and PD were evaluated.
After the screening visit, eligible participants checked—in on Day-2. On Day 1, eligible participants were randomized 6:2 to TAK-935 or placebo in each dose group in double-blinded fashion. No stratification variables were used for randomization. On the same day, study drug was administered by oral administration of single dosing of TAK-935 to each cohort at each dose level. The subjects were discharged on Day 3. Intensive PK samplings were performed from Day 1 to Day 3.
Subjects received a single dose of TAK-935 or placebo of 200 mg, 600 mg, or 1200 mg with 150 mL of water, after fasting for at least 10 hours and remained fasted until 4 hours after dosing.
Blood samples for PK analysis of TAK-935 and its metabolites (M-I) were collected into blood collection tubes (vacutainer) containing the anticoagulant K2EDTA (Table 40e and Table 40f).
The PK parameters of TAK-935 and its metabolites (M-I) were determined from the concentration-time profiles for all evaluable subjects. Actual sampling times, rather than scheduled sampling times, were used in all computations involving sampling times. The following PK parameters were calculated from plasma concentrations of TAK-935 and its metabolites (M-I), unless otherwise specified: […]

[3] = Day 21 after 100 mg BID, 200 mg BID, and 300 mg BID, mean
[4] = multiple doses 100 mg BID, 200 mg BID, and 300 mg BID (Day 21), mean
[5] = TAK-935 200 mg single dose, mean
[6] = TAK-935 600 mg single dose, mean
[7] = TAK-935 1200 mg single dose, mean
[8] = human, oral, TAK-935 200 mg single dose, mean
[9] = human, oral, TAK-935 600 mg single dose, mean
[10] = human, oral, TAK-935 1200 mg single dose, mean
[11] = human, oral, TAK-935, single dose 200 mg
[12] = human, oral, TAK-935, single dose 600 mg
[13] = human, oral, TAK-935, single dose 1200 mg

O=C(c1cccnc1-c1ccncc1)N1CCC(O)(Cc2ccccc2)CC1 [soticlestat]
change in seizure frequency from baseline, individual patients ([1]; Part A, three patients treated concurrently with perampanel): +107% and +465% and +4%
median percent change from baseline seizure frequency ([1]; Part B maintenance, days 42-85 (n=16)): −36.38%
median percent change from baseline seizure frequency ([1]; Part B, excluding patients taking perampanel (n=13)): −44.66%
change in seizure frequency from baseline, individual patients ([1]; Part B, three patients taking perampanel): +297% and +398% and +175%
median seizure frequency ([1]; all completers except those taking perampanel): 25.60 per 28 days
reduction in seizure frequency in two patients ([1]; last 4 weeks/month of treatment): 100%
median percent change from baseline seizure frequency ([1]; last 28 days of Part B (post-hoc)): −60.74%
maximum mean decrease of trough plasma 24HC from time-matched baseline (plasma 24HC; Day 21, up-titration to 300 mg BID): about 88%
AUEC24 of plasma 24HC (plasma 24HC; [3]): 124.2 ng·h/mL
AVECτ of plasma 24HC (AUEC during a dosing interval) (plasma 24HC; [3]): 61.28 ng·h/mL
E12 of plasma 24HC (observed effect at 12 hours) (plasma 24HC; [3]): 5.443 ng/mL
E24 of plasma 24HC (observed effect at 24 hours) (plasma 24HC; [3]): 5.013 ng/mL
Emax of plasma 24HC (plasma 24HC; [3]): 4.640 ng/mL
Time to Emax of plasma 24HC (plasma 24HC; Day 21 after 100 mg BID, 200 mg BID, and 300 mg BID, median): 6.000 h
Emax (plasma 24HC; Homo sapiens, 504 h, multiple doses 100 mg BID, 200 mg BID, and 300 mg BID (Day 21), mean, read-out: % change from Baseline in Emax of plasma 24HC): -86.7%
% change from Baseline in AUEC24 of plasma 24HC (plasma 24HC; [4]): −86.75%
% change from Baseline in AUECτ of plasma 24HC (plasma 24HC; [4]): −86.62%
% change from Baseline in E12 of plasma 24HC (plasma 24HC; [4]): −85.83%
% change from Baseline in E24 of plasma 24HC (plasma 24HC; [4]): −87.67%
CL/F [2, 5]: 470.8 L/h
Lambda z [2, 5]: 0.1608 h⁻¹
AUC∞ [2, 6]: 3917 ng·h/mL
CL/F [2, 6]: 178.4 L/h
Lambda z [2, 6]: 0.1634 h⁻¹
Tmax ([2]; TAK-935 600 mg single dose, median): 30 min
CL/F [2, 7]: 119.8 L/h
Lambda z [2, 7]: 0.1922 h⁻¹
AUC(0-inf) [2, 8]: 720 ng·h/mL
AUC(0-t) [2, 8]: 695 ng·h/mL
Vd/F [2, 8]: 4260 L
half-life [2, 8]: 353 min
AUC(0-t) [2, 9]: 3860 ng·h/mL
Vd/F [2, 9]: 2340 L
half-life [2, 9]: 522 min
AUC(0-inf) [2, 10]: 11400 ng·h/mL
AUC(0-t) [2, 10]: 11400 ng·h/mL
Vd/F [2, 10]: 769 L
half-life [2, 10]: 304 min
Tmax ([2]; human, oral, 200 mg, TAK-935 200 mg single dose, median, read-out: tmax): 45 min
Tmax ([2]; human, oral, 1200 mg, TAK-935 1200 mg single dose, median, read-out: tmax): 30 min
Tmax ([2]; human, oral, 1200 mg, TAK-935, single dose 200, 600, 1200 mg, read-out: Tmax (median), range): 30 to 45 min
Cmax [2, 11]: 850 ng/mL
AUC [2, 11]: 698 ng·h/mL
Cmax [2, 12]: 3280 ng/mL
AUC [2, 12]: 3860 ng·h/mL
Cmax [2, 13]: 10200 ng/mL
AUC [2, 13]: 11300 ng·h/mL
